Test [1] concerns the target Stress-induced-phosphoprotein 1 (Homo sapiens) (UniProt P31948). Kind of test: Inhibition of (2S,8S,11S,14S)-2-(4-aminobutyl)-14-(3-guanidinopropyl)-8-(4-hydroxybenzyl)-11-(hydroxymethyl)-4,7,10,13,16,32-hexaoxo-36-((3aS,4S,6aR)-2-oxohexahydro-1H-thieno[3,4-d]imidazol-4-yl)-19,22,25,28-tetraoxa-3,6,9,12,15,31-hexaazahexatriacontan-1-oic acid binding to His-tagged human HOP expressed in Escherichia coli up to 200 uM by Western blot analysis. (In general: A western blot detects proteins with antibodies after separation by electrophoresis.)

Test [2] has as its target Heat shock protein HSP90 (Homo sapiens) (UniProt P07900+P08238). Kind of test: Binding affinity to Hsp90 (unknown origin) at 10 to 200 uM after 1 hr by Western blot analysis based pull down assay. It is filed as protein assay.
The species entered for test [3] is Homo sapiens. Kind of test: Binding affinity to human recombinant Hsp70 expressed in Escherichia coli at 10 to 200 uM in presence of 1% Triton-X-100 after 1 hr by Western blot analysis based pull down assay.
Test [4] is filed under the species Homo sapiens. Kind of test: Binding affinity to human recombinant Hsp70 expressed in Escherichia coli in presence of 1% Triton-X-100 after 1 hr by Western blot analysis based pull down assay.

Activity calls are given as the source filed them. No cut-off for these calls is given here. Peptide text beside a SMILES is read from it. * marks the point of attachment. Biotin = O=C1N[C@H]2[C@H](CS[C@H]2CCCCC(=O)*)N1; PEG4 = NCCOCCOCCOCCOCCC(=O)O

Stress-induced-phosphoprotein 1 (Homo sapiens), sequence (P31948 whole entry, looked up): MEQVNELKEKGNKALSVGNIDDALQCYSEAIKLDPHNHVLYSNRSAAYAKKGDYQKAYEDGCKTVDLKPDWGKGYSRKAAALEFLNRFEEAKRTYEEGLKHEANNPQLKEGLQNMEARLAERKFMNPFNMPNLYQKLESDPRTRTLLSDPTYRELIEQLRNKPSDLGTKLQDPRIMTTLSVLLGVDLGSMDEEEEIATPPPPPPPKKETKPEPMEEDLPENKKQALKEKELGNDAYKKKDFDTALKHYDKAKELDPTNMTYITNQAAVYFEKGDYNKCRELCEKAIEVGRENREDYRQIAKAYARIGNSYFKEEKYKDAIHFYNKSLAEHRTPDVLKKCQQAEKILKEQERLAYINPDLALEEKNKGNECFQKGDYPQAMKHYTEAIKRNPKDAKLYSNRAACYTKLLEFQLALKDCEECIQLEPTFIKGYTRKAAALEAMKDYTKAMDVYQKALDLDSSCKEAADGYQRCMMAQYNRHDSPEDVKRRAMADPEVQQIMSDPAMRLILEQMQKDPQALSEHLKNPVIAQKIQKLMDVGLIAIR

As for `N=C(N)NCCC[C@H](NC(=O)[C@H](CO)NC(=O)[C@H](Cc1ccc(O)cc1)NC(=O)CNC(=O)[C@@H](N)CCCCN)C(=O)O` (H-KGYSR-OH), the inhibition entry in test [1] is “Active”.

For `CC(C)C[C@H](NC(=O)[C@H](C)NC(=O)[C@H](C)NC(=O)CCOCCOCCOCCOCCNC(=O)CCCC[C@@H]1SC[C@@H]2NC(=O)N[C@@H]21)C(=O)N[C@@H](CCC(=O)O)C(=O)N[C@@H](Cc1ccccc1)C(=O)O` ({Biotin-PEG4}-AALEF-OH), the result (in test [2]; in the test filed under Homo sapiens [3]) was inactive.

As to `N=C(N)NCCC[C@H](NC(=O)[C@H](CO)NC(=O)[C@H](Cc1ccc(O)cc1)NC(=O)CNC(=O)[C@H](CCCCN)NC(=O)CCOCCOCCOCCOCCNC(=O)CCCC[C@@H]1SC[C@@H]2NC(=O)N[C@@H]21)C(=O)O` ({Biotin-PEG4}-KGYSR-OH), in the test filed under Homo sapiens [4], the Activity result is “Dose-dependent effect”. In addition, in test [2], the result was inactive.

(Values after ChEMBL document CHEMBL4371028, “Designing de Novo Small Molecules That Control Heat Shock Protein 70 (Hsp70) and Heat Shock Organizing Protein (HOP) within the Chaperone Protein-Folding Machinery” (J Med Chem, 2019).)
